Measured values: patent publication US20250179022A1, “COMPOUND USED AS TYK2 INHIBITOR, PREPARATION METHOD THEREFOR, AND PHARMACEUTICAL USE THEREOF” (SHANGHAI ZHIGEN PHARMACEUTICAL & TECHNOLOGY CO. LTD., priority 2022, published 2025)
≈ marks a conversion by molar mass, not a printed value.

Columns and labels:
[1] = In vivo pharmacokinetic experiments in Beagle dogs (oral); conditions: 2 mg/kg
Experimental: Experimental Methods: Healthy male Beagle dogs were randomly grouped into 3 […] in each group, and were given the test compounds orally. Before the gavage experiment, the dogs were fasted for 12 h, drank water freely, and were uniformly fed for 4 h after the administration of the drug. 0.083, 0.25, 0.5, 1.0, 2.0, 4.0, 6.0, 8.0, 10 and 24 h after administration; about 600 μL of blood was collected from the forelimb or hindlimb at the above set time points and placed in EDTA-K2 tubes, and the whole blood was collected and stored temporarily in an ice-water bath, and then centrifuged at least 3500 rpm for 10 min within 30 min, and the plasma was separated and frozen in a −70° C. refrigerator for testing.

[2] = Solubility in water (at pH=7); type: physicochemical
Text: Test Example 6: Solubility of the Compounds of the Invention in Water (at pH=7)

In the case of `[2H]C([2H])([2H])NC(=O)c1nnc(NC(=O)C2CC2)cc1Nc1nc(N)c(Cl)cc1[S@@](C)(=O)=NC` [Example 28], the AUC [1] is reported as 6684 ngh/mL, the F [1] is reported as 117% and the Cmax ([1]; male, dog, plasma) is reported as 485 ng/mL. For the same molecule, the MRT ([1]; male, dog, plasma) was 10.7 h, the half-life ([1]; male, dog, plasma) was 7.26 h and the Solubility [2] was 22 µg/mL (≈ 48.3 µM).
